From ChEMBL document CHEMBL5465560, “Selectivity Literature for EUbOPEN Chemogenomic Library” (2024)
One block for each compound: values may come before it.

Legend:
[1] = molecular target: Tyrosine-protein kinase JAK1 (Homo sapiens, UniProt P23458); assay: Selectivity interaction (ActivX KiNativ screen (kinase selectivity in THP-1 cell lysates)) EUB0000639a JAK1; type: subcellular; conditions: lysate, at 0.01 µM
Focal adhesion kinase 1 = Focal adhesion kinase 1 (Homo sapiens, UniProt Q05397); assay: Selectivity interaction (KinomeScan (DiscoverX)) EUB0000092b PTK2; conditions: at 10 µM
[2] = molecular target: T1, Ephrin type-B receptor 2 (Homo sapiens) (UniProt P29323); assay: Selectivity interaction (KinomeScan (DiscoverX)) EUB0000045b EPHB2
T1 sequence (whole entry): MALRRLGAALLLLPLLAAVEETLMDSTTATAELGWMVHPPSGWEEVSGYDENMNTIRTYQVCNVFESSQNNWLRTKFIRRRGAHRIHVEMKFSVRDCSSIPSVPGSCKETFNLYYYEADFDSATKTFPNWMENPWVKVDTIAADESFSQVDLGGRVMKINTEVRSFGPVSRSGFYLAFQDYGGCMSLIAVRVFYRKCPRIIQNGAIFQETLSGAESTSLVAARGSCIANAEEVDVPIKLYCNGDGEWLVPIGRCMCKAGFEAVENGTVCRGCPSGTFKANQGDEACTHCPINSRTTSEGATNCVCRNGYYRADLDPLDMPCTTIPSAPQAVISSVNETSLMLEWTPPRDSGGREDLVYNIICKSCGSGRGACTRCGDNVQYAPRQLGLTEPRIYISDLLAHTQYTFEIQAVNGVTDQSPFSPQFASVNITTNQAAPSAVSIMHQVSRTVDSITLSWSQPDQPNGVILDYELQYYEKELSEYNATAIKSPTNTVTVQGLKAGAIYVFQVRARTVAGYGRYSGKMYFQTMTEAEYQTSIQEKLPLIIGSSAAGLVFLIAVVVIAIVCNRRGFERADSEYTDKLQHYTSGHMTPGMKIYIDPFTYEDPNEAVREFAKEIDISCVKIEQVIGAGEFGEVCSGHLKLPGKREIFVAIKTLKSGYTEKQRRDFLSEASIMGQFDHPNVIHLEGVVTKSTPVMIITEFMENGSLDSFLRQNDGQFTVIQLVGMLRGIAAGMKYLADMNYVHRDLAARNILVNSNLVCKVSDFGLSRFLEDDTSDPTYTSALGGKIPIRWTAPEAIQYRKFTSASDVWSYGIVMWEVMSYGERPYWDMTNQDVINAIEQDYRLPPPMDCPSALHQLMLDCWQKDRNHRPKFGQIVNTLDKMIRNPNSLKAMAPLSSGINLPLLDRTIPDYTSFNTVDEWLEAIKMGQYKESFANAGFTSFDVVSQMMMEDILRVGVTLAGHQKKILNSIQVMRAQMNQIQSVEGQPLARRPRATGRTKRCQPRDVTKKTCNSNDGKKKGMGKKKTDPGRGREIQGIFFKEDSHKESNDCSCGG

[3] = molecular target: T2, Mitogen-activated protein kinase kinase kinase kinase 3 (Homo sapiens) (UniProt Q8IVH8); assay: Selectivity interaction (KinomeScan (DiscoverX)) EUB0001619a MAP4K3; conditions: at 1 µM
T2 sequence (whole entry): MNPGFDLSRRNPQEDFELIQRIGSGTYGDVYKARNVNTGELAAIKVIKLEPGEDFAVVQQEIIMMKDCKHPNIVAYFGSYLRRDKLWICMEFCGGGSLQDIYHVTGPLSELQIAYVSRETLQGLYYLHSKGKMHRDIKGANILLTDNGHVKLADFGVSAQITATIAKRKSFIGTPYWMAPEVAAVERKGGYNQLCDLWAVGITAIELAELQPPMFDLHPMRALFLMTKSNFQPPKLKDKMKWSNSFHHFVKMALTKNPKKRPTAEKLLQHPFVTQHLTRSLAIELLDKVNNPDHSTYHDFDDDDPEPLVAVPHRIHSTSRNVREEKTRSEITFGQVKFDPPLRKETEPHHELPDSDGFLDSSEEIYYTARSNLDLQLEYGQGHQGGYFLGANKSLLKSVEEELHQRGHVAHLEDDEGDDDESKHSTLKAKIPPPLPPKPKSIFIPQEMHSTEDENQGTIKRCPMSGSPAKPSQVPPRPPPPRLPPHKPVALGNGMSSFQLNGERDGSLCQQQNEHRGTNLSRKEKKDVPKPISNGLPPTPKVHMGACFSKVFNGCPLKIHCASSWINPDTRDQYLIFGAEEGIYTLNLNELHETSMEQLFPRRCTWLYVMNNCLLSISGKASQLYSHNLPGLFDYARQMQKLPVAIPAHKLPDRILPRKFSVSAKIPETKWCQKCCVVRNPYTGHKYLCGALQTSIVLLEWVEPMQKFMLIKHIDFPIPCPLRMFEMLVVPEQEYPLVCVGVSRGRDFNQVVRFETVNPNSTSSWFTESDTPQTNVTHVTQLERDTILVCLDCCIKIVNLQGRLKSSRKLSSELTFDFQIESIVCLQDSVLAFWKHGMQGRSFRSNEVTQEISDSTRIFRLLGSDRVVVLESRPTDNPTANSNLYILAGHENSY

[4] = molecular target: Serine/threonine-protein kinase MARK2 (Homo sapiens) (UniProt Q7KZI7); assay: Selectivity interaction (KinomeScan (DiscoverX)) EUB0001619a MARK2; conditions: at 1 µM
Chain of Serine/threonine-protein kinase MARK2 (Homo sapiens) (Q7KZI7 whole entry): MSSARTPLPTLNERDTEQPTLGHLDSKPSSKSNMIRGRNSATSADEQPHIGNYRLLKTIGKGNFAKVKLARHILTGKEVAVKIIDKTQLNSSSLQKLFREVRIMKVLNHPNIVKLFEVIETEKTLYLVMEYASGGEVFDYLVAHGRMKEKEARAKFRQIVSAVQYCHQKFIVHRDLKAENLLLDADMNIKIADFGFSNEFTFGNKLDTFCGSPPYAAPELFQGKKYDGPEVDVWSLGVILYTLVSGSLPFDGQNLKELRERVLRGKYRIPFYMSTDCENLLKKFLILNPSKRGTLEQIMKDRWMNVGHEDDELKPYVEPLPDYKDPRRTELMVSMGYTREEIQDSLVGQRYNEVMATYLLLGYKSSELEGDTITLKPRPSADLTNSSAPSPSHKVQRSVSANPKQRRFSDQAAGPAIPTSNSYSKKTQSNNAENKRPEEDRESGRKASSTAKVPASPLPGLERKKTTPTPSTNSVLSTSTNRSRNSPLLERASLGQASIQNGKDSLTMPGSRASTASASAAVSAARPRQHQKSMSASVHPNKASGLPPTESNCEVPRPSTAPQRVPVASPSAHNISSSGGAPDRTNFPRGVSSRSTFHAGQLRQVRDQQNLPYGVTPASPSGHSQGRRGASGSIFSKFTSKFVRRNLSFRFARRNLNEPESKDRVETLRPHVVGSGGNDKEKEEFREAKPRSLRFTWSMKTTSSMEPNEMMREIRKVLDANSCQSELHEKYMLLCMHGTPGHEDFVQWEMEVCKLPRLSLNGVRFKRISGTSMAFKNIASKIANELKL

Chain of Tyrosine-protein kinase JAK1 (P23458 whole entry): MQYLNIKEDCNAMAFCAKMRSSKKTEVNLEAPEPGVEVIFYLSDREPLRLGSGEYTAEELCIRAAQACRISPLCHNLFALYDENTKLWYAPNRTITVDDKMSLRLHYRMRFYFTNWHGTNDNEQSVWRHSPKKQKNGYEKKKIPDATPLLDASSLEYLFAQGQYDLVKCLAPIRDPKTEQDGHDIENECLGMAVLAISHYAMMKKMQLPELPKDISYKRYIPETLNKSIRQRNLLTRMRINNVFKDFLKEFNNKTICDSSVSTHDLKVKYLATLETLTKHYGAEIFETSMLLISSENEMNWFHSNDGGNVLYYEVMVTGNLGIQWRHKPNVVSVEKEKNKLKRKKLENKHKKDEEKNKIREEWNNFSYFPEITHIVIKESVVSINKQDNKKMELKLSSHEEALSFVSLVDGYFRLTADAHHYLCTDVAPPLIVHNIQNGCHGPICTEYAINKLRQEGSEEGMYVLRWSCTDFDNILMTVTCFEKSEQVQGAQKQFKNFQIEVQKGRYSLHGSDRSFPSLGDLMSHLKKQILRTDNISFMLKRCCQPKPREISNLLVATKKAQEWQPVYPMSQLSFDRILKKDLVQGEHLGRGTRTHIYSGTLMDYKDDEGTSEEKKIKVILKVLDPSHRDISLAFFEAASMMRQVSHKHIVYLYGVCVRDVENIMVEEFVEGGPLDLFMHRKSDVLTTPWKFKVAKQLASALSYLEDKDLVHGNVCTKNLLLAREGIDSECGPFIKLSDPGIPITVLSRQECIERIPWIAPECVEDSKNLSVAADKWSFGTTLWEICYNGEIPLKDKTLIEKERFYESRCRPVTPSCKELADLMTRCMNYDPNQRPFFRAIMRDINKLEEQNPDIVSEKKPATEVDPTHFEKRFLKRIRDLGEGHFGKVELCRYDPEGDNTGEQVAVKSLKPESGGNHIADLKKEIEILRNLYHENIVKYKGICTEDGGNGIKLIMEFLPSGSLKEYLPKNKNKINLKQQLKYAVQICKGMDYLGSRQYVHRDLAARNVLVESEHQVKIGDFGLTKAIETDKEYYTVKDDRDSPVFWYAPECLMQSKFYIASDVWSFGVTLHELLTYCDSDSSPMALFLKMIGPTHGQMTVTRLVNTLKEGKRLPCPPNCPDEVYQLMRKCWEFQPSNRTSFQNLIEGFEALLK
Chain of Focal adhesion kinase 1 (Q05397 2-1052 limits assumed): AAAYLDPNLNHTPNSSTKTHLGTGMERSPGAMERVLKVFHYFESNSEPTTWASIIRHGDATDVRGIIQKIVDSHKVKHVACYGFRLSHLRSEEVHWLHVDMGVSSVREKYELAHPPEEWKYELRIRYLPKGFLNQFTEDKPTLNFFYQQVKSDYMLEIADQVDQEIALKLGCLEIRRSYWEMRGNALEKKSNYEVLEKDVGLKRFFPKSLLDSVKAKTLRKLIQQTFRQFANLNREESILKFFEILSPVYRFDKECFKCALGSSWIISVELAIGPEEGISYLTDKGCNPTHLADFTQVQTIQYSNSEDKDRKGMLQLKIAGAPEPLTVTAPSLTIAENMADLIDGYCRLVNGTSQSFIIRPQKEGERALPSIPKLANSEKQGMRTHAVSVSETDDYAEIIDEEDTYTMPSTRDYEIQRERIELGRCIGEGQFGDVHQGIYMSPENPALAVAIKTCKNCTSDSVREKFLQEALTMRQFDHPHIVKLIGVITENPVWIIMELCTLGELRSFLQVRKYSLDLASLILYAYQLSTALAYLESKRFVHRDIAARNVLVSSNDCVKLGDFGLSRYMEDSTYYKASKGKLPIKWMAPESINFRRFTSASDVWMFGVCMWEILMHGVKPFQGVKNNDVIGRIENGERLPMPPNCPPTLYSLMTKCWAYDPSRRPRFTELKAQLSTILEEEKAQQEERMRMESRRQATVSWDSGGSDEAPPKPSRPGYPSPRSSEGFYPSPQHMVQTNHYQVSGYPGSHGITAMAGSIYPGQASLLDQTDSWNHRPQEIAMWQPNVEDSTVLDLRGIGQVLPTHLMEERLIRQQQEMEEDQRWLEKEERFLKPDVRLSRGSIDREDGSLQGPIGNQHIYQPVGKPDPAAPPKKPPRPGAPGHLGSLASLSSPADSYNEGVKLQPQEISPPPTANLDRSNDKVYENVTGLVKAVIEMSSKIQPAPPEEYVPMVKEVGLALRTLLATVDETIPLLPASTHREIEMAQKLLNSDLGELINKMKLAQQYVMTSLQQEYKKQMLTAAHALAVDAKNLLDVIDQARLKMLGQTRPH

% of inhibition [1]: -2.1%
SMILES: CC[C@@H]1[C@H](F)C(=O)N[C@@H]1COc1nccc2cc(C(N)=O)c(OC)cc12 [ZIMLOVISERTIB]

SMILES: CCC(=O)N1CCN(c2ccc(-n3c(=O)ccc4cnc5ccc(-c6cnc7ccccc7c6)cc5c43)cc2C(F)(F)F)CC1
% of control (Focal adhesion kinase 1): 14%

SMILES: C=CC(=O)Nc1cc(-n2c(=O)ccc3cnc4ccc(-c5ccc(NS(C)(=O)=O)cc5)cc4c32)ccc1C
% of control ([2]; at 1 µM): 80% | % of control ([2]; at 10 µM): 95%

SMILES: N#Cc1cccc(-c2c[nH]c3ncnc(N4CCOCC4)c23)c1
% of control [3]: 4.8% | % of control [4]: 43%
